Assay results published in patent US5389643A, “Aminobenzoic acid derivatives useful for treating gastro-intestinal conditions” (Eisai Co., Ltd., priority 1992, dated 1995).
Where a name gives a salt, the structure may show the parent alone. Read-outs that look alike come from different tables or passages of the source.

How the values were obtained:
[1] = system: contraction of guinea pig ileum induced by electrical field stimulation (acetylcholine release); test: Effect of increasing contraction of guinea pig ileum induced by electrical field stimulation; type: cell-based; settings: electrical field stimulation once per 10 seconds, cumulative addition at intervals of 10 minutes, 37° C., read-out: Min. concn. causing increment of ileal contraction
Procedure: Effect of increasing contraction of guinea pig ileum induced by electrical field stimulation
This experiment was made according to the method of Sanger et al. [see Br. J. Pharmacol., 91, 77-87 (1987)]. The longitudinal muscle of the nonterminal ileum of a guinea pig was separated and vertically suspended in the Krebs-Henseleit solution (37° C.) in a Magnus tube by applying a load of 0.5 g to the end of the muscle. A mixed gas comprising 95% of oxygen and 5% of carbon dioxide was passed through the solution. The contraction of the muscle was isometrically determined. Electrical field stimulation was applied to the muscle by the use of a platinum electrode once per 10 seconds to induce the contraction of the muscle. The contraction was caused through the release of acetylcholine. After the muscle had been stabilized, a solution of a test compound was cumulatively added into the Magnus tube at intervals of 10 minutes. The effect of the test compound is represented by percentage based on the initial contraction. The minimum concentration of each test compound at which an increment was found in the contraction due to the release of acetylcholine is shown in Table 4.

[2] = biological target: T1, 2-methylserotonin-induced contraction of the ileum (5-HT3 antagonism) (Cavia porcellus, UniProt O70212); test: Antagonism against 2-methylserotonin-induced contraction or systole of ileum; type: cell-based, guinea pig (Hartley male); settings: test compound added 30 minutes before 2-methylserotonin, nonterminal ileum, 37° C.; for Kb: read-out: pA2 (converted)
T1 construct: from tissue; host or cells: isolated nonterminal ileum of male Hartley guinea pig
T1 sequence (O70212 20-490): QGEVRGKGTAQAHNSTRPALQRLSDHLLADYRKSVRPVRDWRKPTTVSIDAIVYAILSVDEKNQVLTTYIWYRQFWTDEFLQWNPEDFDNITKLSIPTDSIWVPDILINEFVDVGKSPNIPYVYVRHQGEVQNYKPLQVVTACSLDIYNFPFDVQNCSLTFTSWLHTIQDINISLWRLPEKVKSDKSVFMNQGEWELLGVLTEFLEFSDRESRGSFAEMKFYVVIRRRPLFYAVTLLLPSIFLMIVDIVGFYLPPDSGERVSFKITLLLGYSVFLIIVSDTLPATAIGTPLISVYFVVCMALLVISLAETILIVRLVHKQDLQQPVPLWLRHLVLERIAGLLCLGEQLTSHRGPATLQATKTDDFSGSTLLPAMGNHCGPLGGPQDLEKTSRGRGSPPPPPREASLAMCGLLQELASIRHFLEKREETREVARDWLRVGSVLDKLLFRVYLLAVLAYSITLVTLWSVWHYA
Procedure: Antagonism against 2-methylserotonin-induced contraction or systole of ileum
This experiment was made according to the method of Sanger et al. [see Eur. J. Pharmacol., 159, 113-124 (1989)]. The nonterminal ileum of a Hartley male guinea pig was suspended in the Krebs-Henseleit solution (37° C.) by applying a load of 0.5 g to the end of the ileum and a gaseous mixture comprising 95% of oxygen and 5% of carbon dioxide was passed through the solution. The contraction of the ileum was isometrically determined. After allowing the ileum to stand for one or more hours for stabilization, a solution of a test compound was added to the solution, and after 30 minutes, 2-methylserotonin was noncumulatively added. The pA2 value was calculated from the rightward shift of the dose-response curve of the 2-methylserotonin-induced contraction caused by the test compound according to the method of Rossum et al. [see Arch. Int. Pharmacodyn., 143, 299(1963)]. BRL 24682 was used as a control in this experiment.

[3] = system: gastric emptying function; test: Activity for raising gastric emptying function; type: in vivo, Fischer male rats; settings: oral (5 ml/kg), one hour before test food, versus control rat
Procedure: Activity for raising gastric emptying function
This experiment was made according to the method of Decktot et al. [see Eur. J. Pharmacol., 147, 313-316 (1988)]. Fischer male rats (weight: 160 to 180 g) were fasted for 18 hours before 3 ml of a test food comprising methylcellulose, beef broth, casein, sugar and corn starch was orally administered to each rat. One hour after the administration, the stomach was extirpated from each rat. The gastric emptying ratio was calculated from the weight of the test food remaining in the stomach. The ratio of rise of the gastric emptying function was determined by comparing the gastiric emptying ratio of a medicated rat with that of a control rat which had not administered any test compounds. Each test compound (5 ml/kg) was orally administered one hour before the administration of the test food. BRL 24682 was used as a control in this experiment.

CC#CC(C)Oc1cc(N)c(Cl)cc1C(=O)N[C@H]1C[C@H]2CC[C@@H](C1)N2C (single isomer, unassigned; (+)) [Example 36, (+)-endo-4-Amino-5-chloro-N-(8-methyl-8-azabicyclo[3.2.1]oct-3-yl)-2-{(3-pentyn-2-yl)oxy}benzamide hydrochloride]
minimal effective concentration ([1]; listed as 36 (-)-isomer, hydrochloride): 0.26 µM | Kb [2]: 1.91 nM

C#CC(CC)Oc1cc(N)c(Cl)cc1C(=O)N[C@H]1C[C@H]2CC[C@@H](C1)N2C (single isomer, unassigned; (+)) [Example 38, (+)-endo-4-Amino-5-chloro-N-(8-methyl-8-azabicyclo[3.2.1]oct-3-yl)-2-{(1-pentyn-3-yl)oxy}benzamide hydrochloride]
minimal effective concentration ([1]; listed as 38 (-)-isomer, hydrochloride): 0.13 µM | Ratio of rise of gastric emptying function ([3]; listed as 38 (+)-isomer, hydrochloride): 20.5% | Kb [2]: 0.955 nM

C#CC(CC)Oc1cc(N)c(Cl)cc1C(=O)N[C@H]1C[C@H]2CC[C@@H](C1)N2C (single isomer, unassigned; (-)) [Example 37, (-)-endo-4-Amino-5-chloro-N-(8-methyl-8-azabicyclo[3.2.1]oct-3-yl)-2-{(1-pentyn-3-yl)oxy}benzamide hydrochloride]
minimal effective concentration ([1]; listed as 37 (+)-isomer, hydrochloride): 0.048 µM | Ratio of rise of gastric emptying function ([3]; listed as 37 (-)-isomer, hydrochloride): 15.3%

COc1cc(N)c(Cl)cc1C(=O)NC1CC2CCC(C1)N2C (stereo not shown) [BRL 24682, reference compound]
minimal effective concentration [1]: 0.086 µM | Ratio of rise of gastric emptying function [3]: 12.9% | pA2 [2]: 7.80

CC#CC(C)Oc1cc(N)c(Cl)cc1C(=O)N[C@H]1C[C@H]2CC[C@@H](C1)N2C (stereo partly drawn) [Example 2, endo-4-Amino-5-chloro-N-(8-methyl-8-azabicyclo[3.2.1]oct-3-yl) -2-{(3-pentyn-2-yl)oxy}benzamide hydrochloride]
minimal effective concentration ([1]; Cavia porcellus, 10 min): 0.05 µM | Ratio of rise of gastric emptying function [3]: 24.5% | Kb [2]: 2.09 nM

C#CC(CC)Oc1cc(N)c(Cl)cc1C(=O)N[C@H]1C[C@H]2CC[C@@H](C1)N2C (stereo partly drawn) [Example 20, endo-4-Amino-5-chloro-N-(8-methyl-8-azabicyclo[3.2.1]oct-3-yl)-2-{(1-pentyn-3-yl)oxy}benzamide hydrochloride]
minimal effective concentration ([1]; Cavia porcellus, 10 min): 0.11 µM

CC#CCOc1cc(N)c(Cl)cc1C(=O)N[C@H]1C[C@H]2CC[C@@H](C1)N2C [Example 22, endo-4-Amino-2-(2-butynyloxy)-5-chloro-N-(8-methyl-8-azabicyclo[3.2.1]oct-3-yl)benzamide hydrochloride]
minimal effective concentration ([1]; Cavia porcellus, 10 min): > 100 µM

CC#CCCOc1cc(N)c(Cl)cc1C(=O)N[C@H]1C[C@H]2CC[C@@H](C1)N2C [Example 23, endo-4-Amino-5-chloro-N-(8-methyl-8-azabicyclo[3.2.1]oct-3-yl)-2-(3-pentynyloxy)benzamide hydrochloride]
minimal effective concentration ([1]; Cavia porcellus, 10 min): > 100 µM

C#CC(C)Oc1cc(N)c(Cl)cc1C(=O)N[C@H]1C[C@H]2CC[C@@H](C1)N2C (stereo partly drawn) [Example 24, endo-4-Amino-2-{(3-butyn-2-yl)oxy}-5-chloro-N-(8-methyl-8-azabicyclo[3.2.1]oct-3-yl)benzamide hydrochloride]
minimal effective concentration ([1]; Cavia porcellus, 10 min): 0.17 µM | Ratio of rise of gastric emptying function [3]: 13.2%

CCC#CC(CC)Oc1cc(N)c(Cl)cc1C(=O)N[C@H]1C[C@H]2CC[C@@H](C1)N2C (stereo partly drawn) [Example 25, endo-4-Amino-5-chloro-2-{(4-heptyn-3-yl)oxy)-N-(8-methyl-8-azabicyclo[3.2.1]oct-3-yl)benzamide hydrochloride]
minimal effective concentration ([1]; Cavia porcellus, 10 min): 1 µM | Ratio of rise of gastric emptying function [3]: 26.3% | Kb [2]: 0.891 nM

CCC#CCC(C)Oc1cc(N)c(Cl)cc1C(=O)N[C@H]1C[C@H]2CC[C@@H](C1)N2C (stereo partly drawn) [Example 26, endo-4-Amino-S-chloro-2-{(4-heptyn-2-yl)oxy}-N-(8-methyl-8-azabicyclo[3.2.1]oct-3-yl)benzamide hydrochloride]
minimal effective concentration ([1]; Cavia porcellus, 10 min): > 100 µM | Kb [2]: 0.468 nM

CC#CC(CC)Oc1cc(N)c(Cl)cc1C(=O)N[C@H]1C[C@H]2CC[C@@H](C1)N2C (stereo partly drawn) [Example 27, endo-4-Amino-5-chloro-2-{(2-hexyn-4-yl)oxy}-N-(8-methyl-8-azabicyclo[3.2.1]oct-3-yl)benzamide hydrochloride]
minimal effective concentration ([1]; Cavia porcellus, 10 min): 0.25 µM | Ratio of rise of gastric emptying function [3]: 17.2% | Kb [2]: 0.407 nM

CCC#CC(C)Oc1cc(N)c(Cl)cc1C(=O)N[C@H]1C[C@H]2CC[C@@H](C1)N2C (stereo partly drawn) [Example 28, endo-4-Amino-5-chloro-2-{(3-hexyn-2-yl)oxy}-N-(8-methyl-8-azabicyclo[3.2.1]oct-3-yl)benzamide hydrochloride]
minimal effective concentration ([1]; Cavia porcellus, 10 min): > 100 µM

C#CC(CCC)Oc1cc(N)c(Cl)cc1C(=O)N[C@H]1C[C@H]2CC[C@@H](C1)N2C (stereo partly drawn) [Example 29, endo-4-Amino-5-chloro-2-{(1-hexyn-3-yl)oxy}-N-(8-methyl-8-azabicyclo[3.2.1]oct-3-yl)benzamide hydrochloride]
minimal effective concentration ([1]; Cavia porcellus, 10 min): 0.26 µM | Ratio of rise of gastric emptying function [3]: 20.6% | Kb [2]: 0.457 nM

CN1[C@@H]2CC[C@H]1C[C@@H](NC(=O)c1cc(Cl)c(N)cc1OCCF)C2 [Example 30, endo-4-Amino-5-chloro-2-(2-fluoroethoxy)-N-(8-methyl-8-azabicyclo[3.2.1]oct-3-yl)benzamide hydrochloride]
minimal effective concentration ([1]; Cavia porcellus, 10 min): 0.038 µM

CN1[C@@H]2CC[C@H]1C[C@@H](NC(=O)c1cc(Cl)c(N)cc1OCCCC#N)C2 [Example 31, endo-4-Amino-5-chloro-2-(3-cyanopropoxy)-N-(8-methyl-8-azabicyclo[3.2.1]oct-3-yl)benzamide hydrochloride]
minimal effective concentration ([1]; Cavia porcellus, 10 min): > 100 µM

CN1[C@@H]2CC[C@H]1C[C@@H](NC(=O)c1cc(Cl)c(N)cc1OC1CCOCC1)C2 [Example 33, endo-4-Amino-5-chloro-N-(8-methyl-8-azabicyclo[3.2.1]-oct-3-yl)-2-(tetrahydro-4H-pyran-4-oxy)benzamide hydrochloride]
minimal effective concentration ([1]; Cavia porcellus, 10 min): 1.8 µM | Kb [2]: 6.17 nM

C#CCC(C)Oc1cc(N)c(Cl)cc1C(=O)N[C@H]1C[C@H]2CC[C@@H](C1)N2C (stereo partly drawn) [Example 40, endo-4-Amino-5-chloro-N-(8-methyl-8-azabicyclo[3.2.1]oct-3-yl)-2-{(4-pentyn-2-yl)oxy}benzamide hydrochloride]
minimal effective concentration ([1]; Cavia porcellus, 10 min): 0.22 µM | Ratio of rise of gastric emptying function [3]: 16.2%

C#CCCOc1cc(N)c(Cl)cc1C(=O)N[C@H]1C[C@H]2CC[C@@H](C1)N2C [Example 46, endo-4-Amino-2-(3-butynyloxy)-5-chloro-N-(8-methyl-8-azabicyclo[3.2.1]oct-3-yl)benzamide hydrochloride]
minimal effective concentration ([1]; Cavia porcellus, 10 min): 0.16 µM
